Data as given in US10718028B2, “Fluorescent probes for abasic site detection” (CASE WESTERN RESERVE UIVERSITY, priority 2015, dated 2020).

Columns and labels:
[1] = Absorption and emission spectra of AP site binding probes in ethanol; assay type: physicochemical
Method: NMR spectra were recorded on a Varian Mercury 300 MHz, a Varian Inova 400, and a Varian Inova 600 MHz spectrometer at room temperature, except where otherwise noted. Chemical shifts for 1H NMR were reported as 6, parts per million, and referenced to CHCl3 at 7.26 ppm or TMS at 0 ppm. Chemical shifts for ^13C NMR were reported as 6 and referenced to the center line of the CDCl3 triplet at 77.0 ppm or CH2Cl2 pentet at 54.0 ppm. Low resolution mass spectra were recorded on a ThermoScientific LCQ Advantage or a Finnigan LCQ Deca mass spectrometer. Fluorescence data were collected on a Varian Cary Eclipse fluorescence spectrophotometer in a quartz cuvette with a 1 cm pathlength or on a Tecan Infinite M200 scanner. Absorbance data were collected on a Varian Cary 50 Bio UV-Visible Spectrophotometer in a quartz cuvette with a 1 cm path length.
To characterize the fluorescent properties, the absorption and emission spectra were collected for all final compounds.

Aqueous solubility = assay type: physicochemical
[2] = test system: AP sites in calf thymus DNA; assay: MX or ARP and Cy7MX genomic DNA competition assay; assay type: binding; details: for ED50 of Cy7MX, excess of competitor: 1 h at 37° C., constant Cy7MX; for ED50, molar ratio of probe to Cy7MX: calf thymus DNA heat/acid 45 min, FIG. 13
Method: Calf thymus DNA was purchased from Sigma and was reconstituted overnight at 4° C. in either H2O or 500 mM MX (to eliminate basal AP sites) with gentle shaking (1.5 mL water or solution per 5 mg DNA). For samples reconstituted in MX solution, an ethanol precipitation was performed twice before heat and acid treatment (vide infra) then reconstituted in water. The DNA-water solution was aliquoted to 1.5 mL Eppendorf tubes (360 μL) and 10× Citrate buffer (1M NaCl, 100 μM monosodium phosphate, 100 μM monosodium citrate, pH 5.0) was added to a final concentration of 1×. For t=0 min samples, ice-cold 100% EtOH (1.0 mL) was added immediately and the Eppendorf tubes stored at −20° C. Other samples were placed in a 70° C. heating block for 15-90 minutes in 15-minute increments. Samples were removed from heat, precipitated in ice-cold 100% EtOH (1.0 mL), and then chilled at −20° C. for at least 20 minutes. Samples were centrifuged at 12,000×G for 10 min at 4° C. The supernatant was discarded. The process was repeated once beginning with the addition of EtOH (1.0 mL). The DNA pellet was dissolved in 700 μL H2O or TE buffer. Aliquots of 80 μL were put in 1.5 mL Eppendorf tubes. Any samples not used immediately were stored at −80° C.
Solutions of MX and Cy7MX were prepared in H2O varying [MX] from 0-1.9 M and maintaining at 25 μM. […] The ratios of MX:Cy7MX used in this study were: 0, 0.01, 0.1, 0.5, 1, 5, 10, 50, 100, 250, 500, 1000, 2500, 5000, 10000, 25000, 50000, and 75000. […] The following samples were prepared in triplicate: 20 μL of MX/Cy7MX solution was added to 80 μL aliquots of heat/acid treated DNA (t=45 min). Samples were incubated for 1 h at 37° C. in the dark. Ice-cold EtOH (1.0 mL) was added and the DNA was purified by EtOH precipitation three times as described in the heat/acid treatment of genomic DNA section. DNA was dissolved in 150 μL H2O. Aliquots (125 μL) of the samples were added to a black, clear-bottom 96 well plate (Corning) and analyzed with 750 nm excitation and 800 nm emission. Fluorescence was adjusted to DNA concentration.
As before (section 2.3.2) except solutions of ARP and Cy7MX were prepared in H2O varying [ARP] from 0-75 mM and maintaining at 1 μM. The ratios of ARP: Cy7MX used in this study were: 0, 0.1, 1, 10, 100, 500, 1000, 5000, 10000, 25000, 50000, and 75000.

DLD1 cells [3] = assay: ARP analysis of FUDR treated DLD1 DNA; assay type: cell-based; details: ARP-based DNA Damage Quantification Kit, same DNA samples
Method: DNA aliquots (10 μL) from above were diluted in TE buffer (10 μL). DNA concentrations were measured on a Nanodrop 1000 and adjusted to 100 μg/mL in TE buffer. Samples were prepared for ARP analysis using the ARP DNA Damage Quantification Kit (Dojindo #DK02-12). Samples were prepared and analyzed according to the manufacturer's instructions.

DLD1 cells [4] = assay: AP site evaluation in FUDR treated DLD1 cells with Cy7MX; assay type: cell-based; details: 72 h continuous FUDR exposure, UDG KD cells, DNA treated in vitro with UDG
Method: DLD1 cells (ATCC #CCL-221) were obtained from the laboratory of Sanford Markowitz at Case Western Reserve University. UDG directed shRNA clones and scrambled targeted control shRNA clones were purchased from Sigma-Aldrich. According to manufacturer's instructions from Lipofectamine 2000 (Invitrogen), HEK293 cells were transfected to produce lentiviral particles that were used to infect DLD1 cells. Forty-eight hours after transfection, DLD1 cells were diluted for passage and selected with puromycin. The UDG knockdown levels were verified by RT-PCR and Western blot analysis.
To allow for cell proliferation, the following approximate numbers of cells were plated for each time point given in parenthesis: 4 million (24 h), 1 million (48 h), and 0.3 million (72 h). Two mL of medium were removed from each plate and replaced with 2 mL of FUDR solution at a final concentration of 0, 10, 200, or 1000 nM in 10 mL. […]
Pure DNA pellets were dissolved in 200 μL 1×UDG buffer. […] DNA concentrations were measured and adjusted to a maximum of 300 μg/mL. Aliquots (125 μL) of the samples were added to a black, clear-bottom 96 well plate (Corning) and analyzed with 760 nm excitation and emission scan of 790-847 nm with a 3 nm step size. Integrated fluorescence intensities were adjusted to DNA concentration and normalized to the FUDR untreated KD+UDG sample.

[5] = in EtOH; cited from earlier work
[6] = in EtOH; cited from earlier work; remark: listed apart in the source
[7] = test system: AP sites in calf thymus DNA; assay: MX and Cy7MX genomic DNA blocking assay; assay type: binding; details: DNA pretreated with large excess of MX (1000×)
Method: FIG. 10 illustrates fluorescence response and MX blocking of Cy7MX. Calf thymus DNA treated with heat and acid for increments of 15 min to give a linear relative number of AP sites. AP DNA was then pretreated with MX (50 mM, +MX) or NaCl (50 mM, −MX) followed by incubation with Cy7MX (0.05 mM). Fluorescence measures show a linear response to Cy7MX when not blocked by MX.
Calf thymus DNA was purchased from Sigma and was reconstituted overnight at 4° C. in either H2O or 500 mM MX (to eliminate basal AP sites) with gentle shaking (1.5 mL water or solution per 5 mg DNA). For samples reconstituted in MX solution, an ethanol precipitation was performed twice before heat and acid treatment (vide infra) then reconstituted in water. The DNA-water solution was aliquoted to 1.5 mL Eppendorf tubes (360 μL) and 10× Citrate buffer (1M NaCl, 100 μM monosodium phosphate, 100 μM monosodium citrate, pH 5.0) was added to a final concentration of 1×. For t=0 min samples, ice-cold 100% EtOH (1.0 mL) was added immediately and the Eppendorf tubes stored at −20° C. […]
To 80 μL aliquots of DNA was added either 10 μL of MX (500 mM, pH 7) or vehicle control (500 mM NaCl). […] Aliquots (125 μL) of the samples were added to a black, clear-bottom 96 well plate (Corning) and analyzed with 700 nm excitation and 790 nm emission. Fluorescence was adjusted to DNA concentration.

## NOCCCOc1ccc2cc(-c3ccc(N)cc3)c(=O)oc2c1 [ACMX, 7-(3-(aminooxy)propoxy)-3-(4-aminophenyl)-2H-chromen-2-one]
[1]
  Stokes shift: 80 nm
  λabs max: 370 nm
  λem max: 450 nm
Aqueous solubility
  aqueous solubility: poor aqueous solubility

## NOCC(=O)NNC(=O)CCCC[C@@H]1SC[C@@H]2NC(=O)N[C@@H]21 [ARP]
[2]
  ED50 of Cy7MX, excess of competitor: 2600 × excess
  ED50, molar ratio of probe to Cy7MX: 2600 fold excess
DLD1 cells [3]
  background and sensitivity of AP site detection: larger background and lower sensitivity than compound Cy7MX

## O=c1[nH]c(=O)n([C@H]2C[C@H](O)[C@@H](CO)O2)cc1F [FUDR, 5-fluoro-20-deoxyuridine]
DLD1 cells [4]
  increase in Cy7MX fluorescence intensity (AP sites): ~9 fold

## CC1(C)C(/C=C/C=C/C=C/C=C2\N(CCCCS(=O)(=O)O)c3ccc4ccccc4c3C2(C)C)=[N+](CCCCS(=O)(=O)[O-])c2ccc3ccccc3c21 [ICG, indocyanine green]
[5]
  fluorescence quantum yield Φ of the standard: 0.132
[6]
  fluorescence quantum yield of the standard: 0.132

## CON [MX, methoxyamine]
[2]
  ED50 of Cy7MX, excess of competitor: 3000 × excess
  ED50, molar ratio of probe to Cy7MX: 3000 fold excess
[7]
  Cy7MX fluorescent intensity after pretreatment (blocking): significantly reduced
